From patent US9579376B2 (priority 2009, dated 2017)

Legend:
CD8+ T cells = experiment: IFN-γ ELISpot deconvolution and follow-up ICS to identify single peptide epitopes; type: cell-based, human; settings: for antigenicity for persons with HLA A*0201, A*0202 or other HLA-A2 subtypes: Example 1, T-cells from infected patients; for # SUBJECTS: number of HSV-2 seropositive subjects (55 sampled) with CD8+ T cell response to the peptide, ELISpot and follow-up ICS
Method: ELISPOT technology was used to further identify individual peptides.
High throughput intracellular cytokine staining-flow cytometry (ICS) was used to detect IFN-γ, IL-2, TNF-α expression in CD8+ T cells following 6 h exposure of PBMC with HSV-2 peptides (or control antigen) in the presence of co-stimulatory antibodies (α-CD28/α-CD49d) and Brefeldin A. Cytokine responses to peptide antigen were scored positive if they differed from the negative control (p<0.02; Fisher's one-sided test); this cutoff was defined during trial and error validation studies with HSV-2 seronegative subjects and allows for a 5% false positive error rate. Peptide pools giving positive responses by ICS in HSV-2 seropositive subjects were deconvoluted using IFN-γ ELISpot to identify the causative peptide. Deconvolution cutoff was determined as at least 11 spots per well and 3-fold higher spots than DMSO (negative) control.

[1] = system: HSV-2 specific CD8+ T cells; experiment: CFSE proliferation of peptide exposed PBMC (cell division index); type: cell-based, human; settings: CFSE stained PBMC; CDI>2 cut-off for proliferation positivity
Source text: To evaluate the proliferative capacity of HSV-2 specific CD8+ T cells, we utilized CFSE to stain PBMC prior to epitope specific stimulation. […] CD8+ T cells that recognized UL4945-49 did proliferate (CDI=8.7), but CDI values were below threshold for peptides UL4981-96, UL4993-108 and UL49129-143 (respective CDI=1.8, 1.4 and 1.6). Since T cells specific for UL4945-49 are more abundant that those specific for the other epitopes, the ability of these cells to proliferate likely reflects the epitope dominance observed within UL49.

[2] = system: HSV-2 specific CD8+ T cells; settings: one individual with four HLA-B07 restricted UL49 epitopes; versus other tested epitopes
Method: Identified single peptides were used to individually stimulate CD8+ T cells in subjects with multiple epitopes. These responses were analyzed by ICS to determine the polyfunctional profiles of HSV-2 specific T cells. Single peptides were also used to assess degranulation; the presence of lytic proteins granzyme B and perforin, in HSV-2 specific CD8+ T cells, was determined by flow cytometry. The proliferative capacities of HSV-2 specific T cells were determined by pre-staining peptide exposed PBMC with CFSE. A cell division index (CDI)>2 was used as a cut-off for proliferation positivity.
Single peptides identified during this study were used to activate epitope specific CD8+ T cells. Antigen specific CD8+ T cells were identified using a gating strategy. […] The polyfunctional profiles of responding cells, with reference to the expression of IFN-γ, IL2, and TNF-α, and the mobilization of CD107a were determined.

Substance | # SUBJECTS (CD8+ T cells) | other results
9 mer: 9 amino acid minimal epitope at amino acids 372-380 of HSV-2 UL25 (FLWEDQTLL; herpes simplex virus 2) |  | antigenicity for persons with HLA A*0201, A*0202 or other HLA-A2 subtypes (CD8+ T cells): repeatedly and strongly positive
AFEDRSYPAVFYLLQ (herpes simplex virus 2) | 1 | 
AQREAAGVYDAVRTW (herpes simplex virus 2) | 2 | 
ARPRRSASVAGSHGPG (herpes simplex virus 2) | 2 | CDI (cell division index) [1]: 1.8
CPLLIFDRTRKFVLA | 1 | 
DFIWTGNPRTAPRSL | 2 | 
DMETGHIGAYVVLVD | 1 | 
DRLDNRLQLGMLIPG (herpes simplex virus 2) | 1 | 
EAGLMDAATPPARPPA | 1 | 
FGGHYMESVFQMYTR (herpes simplex virus 2) | 1 | 
GHIGAYVVLVDQTGN | 1 | 
GVLVHLRIRTREASF (herpes simplex virus 2) | 1 | 
HGPGPARAPPPPGGPV (herpes simplex virus 2) | 1 | CDI (cell division index) [1]: 1.4
HNLFLWEDQTLLRAT | 5 | antigenicity for persons with HLA A*0201, A*0202 or other HLA-A2 subtypes (CD8+ T cells): repeatedly and strongly positive
KNLLORANELVNPDA: 15-mer epitope, amino acids 249-263 of HSV-2 UL49 | 1 | 
KTSNALCVRGARPFS (herpes simplex virus 2) | 1 | 
LHPFCIPCMKTWIPL | 1 | 
LMLEYFCRCAREESK (herpes simplex virus 2) | 1 | 
LPIAGVSSVVALAPY | 1 | 
PKASATPATDPARGR (herpes simplex virus 2) | 1 | CDI (cell division index) [1]: 1.6
PMRARPRGEVRFLHY | 6 | CDI (cell division index) [1]: 8.7; CD107a positive cells among responding cells [2]: less CD107a positive cells relative to IFN-γ+ cells; cytokine levels in responding cells [2]: higher levels of IFN-γ; monofunctional cells among responding cells [2]: less monofunctional cells; response in Elispot and ICS assays (CD8+ T cells; one individual with four HLA-B07 restricted epitopes within UL49, versus other UL49 epitopes): largest detectable response
PVGNMLFDQGTLVGA | 1 | 
RAAAPAWSRRTLLPE | 3 | 
RLGPADRRFVALSGS (herpes simplex virus 2) | 3 | 
SMSLADFHGEEFEKL (herpes simplex virus 2) | 1 | 
